{"source": "ChEMBL document CHEMBL3992526", "about": "“Antagonizing NOD2 Signaling with Conjugates of Paclitaxel and Muramyl Dipeptide Derivatives Sensitizes Paclitaxel Therapy and Significantly Prevents Tumor Metastasis” (J Med Chem, 2017)", "data": [{"target": "T1, Nucleotide-binding oligomerization domain-containing protein 2 (Homo sapiens, UniProt Q9HC29)", "T1 sequence (Q9HC29 whole entry, the tested form may be a part)": "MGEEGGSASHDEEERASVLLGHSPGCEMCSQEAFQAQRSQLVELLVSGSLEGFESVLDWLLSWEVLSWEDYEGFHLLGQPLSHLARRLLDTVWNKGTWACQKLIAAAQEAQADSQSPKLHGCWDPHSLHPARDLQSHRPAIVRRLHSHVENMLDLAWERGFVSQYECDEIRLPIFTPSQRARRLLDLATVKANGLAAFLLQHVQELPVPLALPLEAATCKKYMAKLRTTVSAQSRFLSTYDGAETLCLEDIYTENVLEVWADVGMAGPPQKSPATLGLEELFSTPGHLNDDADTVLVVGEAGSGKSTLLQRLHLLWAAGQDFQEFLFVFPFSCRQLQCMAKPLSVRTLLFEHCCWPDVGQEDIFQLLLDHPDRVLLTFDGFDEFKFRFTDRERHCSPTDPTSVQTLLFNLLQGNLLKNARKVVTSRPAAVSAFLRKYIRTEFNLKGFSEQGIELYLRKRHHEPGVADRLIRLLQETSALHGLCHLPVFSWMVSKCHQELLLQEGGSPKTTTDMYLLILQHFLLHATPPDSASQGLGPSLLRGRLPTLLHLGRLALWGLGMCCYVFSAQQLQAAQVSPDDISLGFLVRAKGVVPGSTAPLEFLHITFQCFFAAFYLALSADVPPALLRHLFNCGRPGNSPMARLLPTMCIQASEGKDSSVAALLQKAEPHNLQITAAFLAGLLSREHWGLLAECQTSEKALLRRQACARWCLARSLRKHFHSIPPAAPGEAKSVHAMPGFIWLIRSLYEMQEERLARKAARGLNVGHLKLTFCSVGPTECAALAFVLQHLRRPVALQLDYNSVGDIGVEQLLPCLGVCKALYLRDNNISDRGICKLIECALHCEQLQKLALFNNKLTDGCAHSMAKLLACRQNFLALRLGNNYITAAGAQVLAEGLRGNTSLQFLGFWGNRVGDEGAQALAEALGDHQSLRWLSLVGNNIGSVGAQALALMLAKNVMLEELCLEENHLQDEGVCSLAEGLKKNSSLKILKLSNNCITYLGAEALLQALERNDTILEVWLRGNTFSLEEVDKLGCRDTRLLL", "experiment": "Inhibition of MDP-induced human NOD2 signaling expressed in HEK-Blue cells preincubated for 3 hrs followed by MDP-stimulation for 20 hrs by spectrophotometry based SEAP reporter gene assay", "assay_type": "cell-based", "units": {"IC50": "µM"}, "values": [{"smiles": "CC(=O)O[C@@]12CO[C@@H]1C[C@H](O)[C@@]1(C)C(=O)[C@H](O)C3=C(C)[C@@H](OC(=O)[C@H](O)[C@@H](NC(=O)OC(C)(C)C)c4ccccc4)C[C@@](O)([C@@H](OC(=O)c4ccccc4)[C@H]21)C3(C)C", "note": "[DOCETAXEL ANHYDROUS]", "IC50": 5.01}]}, {"target": "T1, Nucleotide-binding oligomerization domain-containing protein 2", "experiment": "Inhibition of MDP-induced human NOD2 signaling expressed in HEK-Blue cells at 10 uM preincubated for 3 hrs followed by MDP-stimulation for 20 hrs by spectrophotometry based SEAP reporter gene assay relative to control", "assay_type": "cell-based", "units": {"inhibition": "%"}, "values": [{"smiles": "CC(=O)O[C@@]12CO[C@@H]1C[C@H](O)[C@@]1(C)C(=O)[C@H](O)C3=C(C)[C@@H](OC(=O)[C@H](OCCC(=O)NCCCC[C@H](NC(=O)CC[C@@H](NC(=O)[C@H](C)NC(=O)/C=C/c4ccc(F)cc4F)C(N)=O)C(=O)O)[C@@H](NC(=O)C(C)(C)C)c4ccccc4)C[C@@](O)([C@@H](OC(=O)c4ccccc4)[C@H]21)C3(C)C", "inhibition": 28}, {"smiles": "CC(=O)O[C@H]1C(=O)[C@@]2(C)[C@H]([C@H](OC(=O)c3ccccc3)[C@]3(O)C[C@H](OC(=O)[C@H](OCCC(=O)NCCCC[C@H](NC(=O)CC[C@@H](NC(=O)[C@H](C)NC(=O)/C=C/c4ccc(Br)cc4)C(N)=O)C(=O)O)[C@@H](NC(=O)c4ccccc4)c4ccccc4)C(C)=C1C3(C)C)[C@]1(OC(C)=O)CO[C@@H]1C[C@@H]2O", "inhibition": 44}, {"smiles": "CC(=O)O[C@H]1C(=O)[C@@]2(C)[C@H]([C@H](OC(=O)c3ccccc3)[C@]3(O)C[C@H](OC(=O)[C@H](OCCC(=O)NCCCC[C@H](NC(=O)CC[C@@H](NC(=O)[C@H](C)NC(=O)/C=C/c4ccc(C)cc4)C(N)=O)C(=O)O)[C@@H](NC(=O)c4ccccc4)c4ccccc4)C(C)=C1C3(C)C)[C@]1(OC(C)=O)CO[C@@H]1C[C@@H]2O", "inhibition": 41}, {"smiles": "CC(=O)O[C@@]12CO[C@@H]1C[C@H](O)[C@@]1(C)C(=O)[C@H](O)C3=C(C)[C@@H](OC(=O)[C@H](OCCC(=O)NCCCC[C@H](NC(=O)CC[C@@H](NC(=O)[C@H](C)NC(=O)/C=C/c4ccc(O)cc4)C(N)=O)C(=O)O)[C@@H](NC(=O)C(C)(C)C)c4ccccc4)C[C@@](O)([C@@H](OC(=O)c4ccccc4)[C@H]21)C3(C)C", "inhibition": 23}, {"smiles": "CC(=O)O[C@@]12CO[C@@H]1C[C@H](O)[C@@]1(C)C(=O)[C@H](O)C3=C(C)[C@@H](OC(=O)[C@H](OCCC(=O)NCCCC[C@H](NC(=O)CC[C@@H](NC(=O)[C@H](C)NC(=O)/C=C/c4ccc(F)c(F)c4)C(N)=O)C(=O)O)[C@@H](NC(=O)C(C)(C)C)c4ccccc4)C[C@@](O)([C@@H](OC(=O)c4ccccc4)[C@H]21)C3(C)C", "inhibition": 24}, {"smiles": "CC(=O)O[C@H]1C(=O)[C@@]2(C)[C@H]([C@H](OC(=O)c3ccccc3)[C@]3(O)C[C@H](OC(=O)[C@H](OCCC(=O)NCCCC[C@H](NC(=O)CC[C@@H](NC(=O)[C@H](C)NC(=O)/C=C/c4ccc(F)cc4)C(N)=O)C(=O)O)[C@@H](NC(=O)c4ccccc4)c4ccccc4)C(C)=C1C3(C)C)[C@]1(OC(C)=O)CO[C@@H]1C[C@@H]2O", "inhibition": 27}, {"smiles": "CC(=O)O[C@@]12CO[C@@H]1C[C@H](O)[C@@]1(C)C(=O)[C@H](O)C3=C(C)[C@@H](OC(=O)[C@H](OCCC(=O)NCCCC[C@H](NC(=O)CC[C@@H](NC(=O)[C@H](C)NC(=O)/C=C/c4cccc(F)c4)C(N)=O)C(=O)O)[C@@H](NC(=O)C(C)(C)C)c4ccccc4)C[C@@](O)([C@@H](OC(=O)c4ccccc4)[C@H]21)C3(C)C", "inhibition": 30}, {"smiles": "CC(=O)O[C@@]12CO[C@@H]1C[C@H](O)[C@@]1(C)C(=O)[C@H](OCCC(=O)NCCCC[C@H](NC(=O)CC[C@@H](NC(=O)[C@H](C)NC(=O)/C=C/c3ccc(Cl)cc3F)C(N)=O)C(N)=O)C3=C(C)[C@@H](O)C[C@@](O)([C@@H](OC(=O)c4ccccc4)[C@H]21)C3(C)C", "inhibition": 22}, {"smiles": "CC(=O)O[C@@]12CO[C@@H]1C[C@H](O)[C@@]1(C)C(=O)[C@H](O)C3=C(C)[C@@H](OC(=O)[C@H](OCCC(=O)NCCCC[C@H](NC(=O)CC[C@@H](NC(=O)[C@H](C)NC(=O)c4ccccc4)C(N)=O)C(=O)O)[C@@H](NC(=O)C(C)(C)C)c4ccccc4)C[C@@](O)([C@@H](OC(=O)c4ccccc4)[C@H]21)C3(C)C", "inhibition": 20}, {"smiles": "CC(=O)O[C@H]1C(=O)[C@@]2(C)[C@H]([C@H](OC(=O)c3ccccc3)[C@]3(O)C[C@H](OC(=O)[C@H](OCCC(=O)NCCCC[C@H](NC(=O)CC[C@@H](NC(=O)[C@H](C)NC(=O)/C=C/c4ccc(F)c(F)c4)C(N)=O)C(=O)O)[C@@H](NC(=O)c4ccccc4)c4ccccc4)C(C)=C1C3(C)C)[C@]1(OC(C)=O)CO[C@@H]1C[C@@H]2O", "inhibition": 29}, {"smiles": "CC(=O)O[C@@]12CO[C@@H]1C[C@H](O)[C@@]1(C)C(=O)[C@H](O)C3=C(C)[C@@H](OC(=O)[C@H](OCCC(=O)NCCCC[C@H](NC(=O)CC[C@@H](NC(=O)[C@H](C)NC(=O)/C=C/c4ccc(F)cc4Cl)C(N)=O)C(N)=O)[C@@H](NC(=O)C(C)(C)C)c4ccccc4)C[C@@](O)([C@@H](OC(=O)c4ccccc4)[C@H]21)C3(C)C", "inhibition": 58}, {"smiles": "CC(=O)O[C@@]12CO[C@@H]1C[C@H](O)[C@@]1(C)C(=O)[C@H](O)C3=C(C)[C@@H](OC(=O)[C@H](OCCC(=O)NCCCC[C@H](NC(=O)CC[C@@H](NC(=O)[C@H](C)NC(=O)COc4cccc5ccccc45)C(N)=O)C(=O)O)[C@@H](NC(=O)C(C)(C)C)c4ccccc4)C[C@@](O)([C@@H](OC(=O)c4ccccc4)[C@H]21)C3(C)C", "inhibition": 34}, {"smiles": "CC(=O)O[C@H]1C(=O)[C@]2(C)[C@@H](OCCC(=O)NCCCC[C@H](NC(=O)CC[C@@H](NC(=O)[C@H](C)NC(=O)/C=C/c3ccc(Cl)cc3F)C(N)=O)C(N)=O)C[C@H]3OC[C@@]3(OC(C)=O)[C@H]2[C@H](OC(=O)c2ccccc2)[C@]2(O)C[C@H](O)C(C)=C1C2(C)C", "inhibition": 9}, {"smiles": "CC(=O)O[C@@]12CO[C@@H]1C[C@H](O)[C@@]1(C)C(=O)[C@H](O)C3=C(C)[C@@H](OC(=O)[C@H](OCCC(=O)NCCCC[C@H](NC(=O)CC[C@@H](NC(=O)[C@H](C)NC(=O)/C=C/c4ccc(F)cc4)C(N)=O)C(=O)O)[C@@H](NC(=O)C(C)(C)C)c4ccccc4)C[C@@](O)([C@@H](OC(=O)c4ccccc4)[C@H]21)C3(C)C", "inhibition": 19}, {"smiles": "CC(=O)O[C@@]12CO[C@@H]1C[C@H](O)[C@@]1(C)C(=O)[C@H](O)C3=C(C)[C@@H](OC(=O)[C@H](OCCC(=O)NCCCC[C@H](NC(=O)CC[C@@H](NC(=O)[C@H](C)NC(=O)c4ccc(Cl)cc4)C(N)=O)C(=O)O)[C@@H](NC(=O)C(C)(C)C)c4ccccc4)C[C@@](O)([C@@H](OC(=O)c4ccccc4)[C@H]21)C3(C)C", "inhibition": 14}, {"smiles": "CC(=O)O[C@@]12CO[C@@H]1C[C@H](O)[C@@]1(C)C(=O)[C@H](O)C3=C(C)[C@@H](OC(=O)[C@H](OCCC(=O)NCCCC[C@H](NC(=O)CC[C@@H](NC(=O)[C@H](C)NC(=O)/C=C/c4ccc(C)cc4)C(N)=O)C(=O)O)[C@@H](NC(=O)C(C)(C)C)c4ccccc4)C[C@@](O)([C@@H](OC(=O)c4ccccc4)[C@H]21)C3(C)C", "inhibition": 25}, {"smiles": "CC(=O)O[C@H]1C(=O)[C@@]2(C)[C@H]([C@H](OC(=O)c3ccccc3)[C@]3(O)C[C@H](OCCC(=O)NCCCC[C@H](NC(=O)CC[C@@H](NC(=O)[C@H](C)NC(=O)/C=C/c4ccc(Cl)cc4F)C(N)=O)C(N)=O)C(C)=C1C3(C)C)[C@]1(OC(C)=O)CO[C@@H]1C[C@@H]2O", "inhibition": 6}, {"smiles": "CC(=O)O[C@@]12CO[C@@H]1C[C@H](O)[C@@]1(C)C(=O)[C@H](O)C3=C(C)[C@@H](OC(=O)[C@H](OCCC(=O)NCCCC[C@H](NC(=O)CC[C@@H](NC(=O)[C@H](C)NC(=O)/C=C/c4cccs4)C(N)=O)C(=O)O)[C@@H](NC(=O)C(C)(C)C)c4ccccc4)C[C@@](O)([C@@H](OC(=O)c4ccccc4)[C@H]21)C3(C)C", "inhibition": 26}, {"smiles": "CC(=O)O[C@H]1C(=O)[C@@]2(C)[C@H]([C@H](OC(=O)c3ccccc3)[C@]3(O)C[C@H](OC(=O)[C@H](OCCC(=O)NCCCC[C@H](NC(=O)CC[C@@H](NC(=O)[C@H](C)NC(=O)/C=C/c4ccc(Cl)cc4)C(N)=O)C(=O)O)[C@@H](NC(=O)c4ccccc4)c4ccccc4)C(C)=C1C3(C)C)[C@]1(OC(C)=O)CO[C@@H]1C[C@@H]2O", "inhibition": 44}, {"smiles": "CC(=O)O[C@H]1C(=O)[C@@]2(C)[C@H]([C@H](OC(=O)c3ccccc3)[C@]3(O)C[C@H](OC(=O)[C@H](OCCC(=O)NCCCC[C@H](NC(=O)CC[C@@H](NC(=O)[C@H](C)NC(=O)/C=C/c4ccc(F)cc4F)C(N)=O)C(=O)O)[C@@H](NC(=O)c4ccccc4)c4ccccc4)C(C)=C1C3(C)C)[C@]1(OC(C)=O)CO[C@@H]1C[C@@H]2O", "inhibition": 21}, {"smiles": "CC(=O)O[C@@]12CO[C@@H]1C[C@H](O)[C@@]1(C)C(=O)[C@H](O)C3=C(C)[C@@H](OC(=O)[C@H](OCCC(=O)NCCCC[C@H](NC(=O)CC[C@@H](NC(=O)[C@H](C)NC(=O)/C=C/c4ccc(Cl)cc4F)C(N)=O)C(=O)O)[C@@H](NC(=O)C(C)(C)C)c4ccccc4)C[C@@](O)([C@@H](OC(=O)c4ccccc4)[C@H]21)C3(C)C", "inhibition": 32}, {"smiles": "CCCCOC(=O)[C@H](OCCC(=O)NCCCC[C@H](NC(=O)CC[C@@H](NC(=O)[C@H](C)NC(=O)/C=C/c1ccc(Cl)cc1F)C(N)=O)C(N)=O)[C@@H](NC(=O)c1ccccc1)c1ccccc1", "inhibition": -6}, {"smiles": "COC(=O)[C@H](OCCC(=O)NCCCC[C@H](NC(=O)CC[C@@H](NC(=O)[C@H](C)NC(=O)/C=C/c1ccc(Cl)cc1F)C(N)=O)C(N)=O)[C@@H](NC(=O)c1ccccc1)c1ccccc1", "inhibition": -7}, {"smiles": "CC(=O)O[C@H]1C(=O)[C@@]2(C)[C@H]([C@H](OC(=O)c3ccccc3)[C@]3(O)C[C@H](OC(=O)[C@H](OCCC(=O)NCCCC[C@H](NC(=O)CC[C@@H](NC(=O)[C@H](C)NC(=O)/C=C/c4ccc(Cl)cc4F)C(N)=O)C(=O)O)[C@@H](NC(=O)c4ccccc4)c4ccccc4)C(C)=C1C3(C)C)[C@]1(OC(C)=O)CO[C@@H]1C[C@@H]2O", "inhibition": 45}, {"smiles": "COc1cccc(/C=C/C(=O)N[C@@H](C)C(=O)N[C@H](CCC(=O)N[C@@H](CCCCNC(=O)CCO[C@@H](C(=O)O[C@H]2C[C@@]3(O)[C@@H](OC(=O)c4ccccc4)[C@@H]4[C@]5(OC(C)=O)CO[C@@H]5C[C@H](O)[C@@]4(C)C(=O)[C@H](OC(C)=O)C(=C2C)C3(C)C)[C@@H](NC(=O)c2ccccc2)c2ccccc2)C(=O)O)C(N)=O)c1", "inhibition": 45}, {"smiles": "CC(=O)O[C@@]12CO[C@@H]1C[C@H](O)[C@@]1(C)C(=O)[C@H](O)C3=C(C)[C@@H](OC(=O)[C@H](OCCC(=O)NCCCC[C@H](NC(=O)CC[C@@H](NC(=O)[C@H](C)NC(=O)c4ccc5ccccc5n4)C(N)=O)C(=O)O)[C@@H](NC(=O)C(C)(C)C)c4ccccc4)C[C@@](O)([C@@H](OC(=O)c4ccccc4)[C@H]21)C3(C)C", "inhibition": 28}]}]}
